Test results: patent US11179372B2, “Isoxazoline solution containing vitamin E for use with sanitized drinking water” (Intervet Inc., priority 2015, dated 2021)

Legend:
[1] = Prevention of degradation by oxidizing sanitizer (hypochlorite) in medicated drinking water; format: physicochemical
Protocol: The Fluralaner level was determined using UHPLC. The alpha-tocopherol used was alpha-tocopherol EP (Fluka).
To prepare the test samples, the required amounts of Transcutol and Tween were measured, combined in a beaker at room temperature, and mixed magnetically. Next, when no protector was added, the required amount of Fluralaner was weighed, added, and mixed until complete dissolution, which usually required about 10 minutes, at 70% speed. […] The complete dissolution was verified visually. Next the density of the resulting solution was checked with a Densimeter, at 20° C.
To test the capacity of the different protectors to prevent degradation of Fluralaner in medicated drinking water by an oxidising sanitizer, samples of the pharmaceutical composition as prepared above were diluted to different concentrations, and incubated with different amounts of hypochlorite. Concentrations of Fluralaner in medicated drinking water used were: 1, 5, and 10 μg/ml.
The hypochlorite used was from a 13% sodium hypochlorite solution (Acros Organics), which was prepared into samples with a concentration of hypochlorite of: 0, 0.5, 2, 5, or 10 ppm, wherein 1 ppm equals 20 μM. Samples without hypochlorite served as positive controls. While the dilutions of hypochlorite were made in purified water, one additional sample at 5 ppm hypochlorite was prepared in standard tap water (Angers, France). Control samples were tested at day zero, all others were tested after an incubation for 7 days at 40° C./75% RH.
The concentration of protector in the test sample was dependent of the dilution factor of the concentrated Fluralaner composition applied: 1:10,000, 1:2000, or 1:1000, respectively.

[2] = system: Northern fowl mite (O. sylviarum); experiment: Efficacy of Fluralaner in medicated drinking water against Northern fowl mite infestation of laying hens; format: in vivo, Ornithonyssus sylviarum
Protocol: No vitamin E was present in the concentrated Fluralaner solution used to prepare the medicated drinking water. The effectivity of an oral dosing regimen of Fluralaner was tested by administering medicated drinking water (via gavage) to laying hens, in 2 repeated doses of 0.25, 0.5 or 1.0 mg/kg body weight, administered 7 days apart, and challenging them with infestation by Northern fowl mites, via source birds and natural infestation. The birds were kept in separate pens, at 11 birds per pen. The statistical analysis of results was based on mite count from each bird in the study, using pen as a random factor in the model, and mite counts were performed and recorded for individual birds. Mite vent count reduction of the treated groups compared to the control group was the primary efficacy criterion.

[3] = Conc. Fluralaner 1 μg/ml, hypochlorite 2 ppm, T = 7 d at 40° C./75% RH
[4] = Conc. Fluralaner 1 μg/ml, hypochlorite 5 ppm (tapw.), T = 7 d at 40° C./75% RH
[5] = Conc. Fluralaner 1 μg/ml, hypochlorite 5 ppm, T = 7 d at 40° C./75% RH
[6] = Conc. Fluralaner 1 μg/ml, hypochlorite 10 ppm, T = 7 d at 40° C./75% RH
[7] = Conc. Fluralaner 5 μg/ml, hypochlorite 0 ppm, T = 0
[8] = Conc. Fluralaner 5 μg/ml, hypochlorite 0 ppm, T = 7 d at 40° C./75% RH
[9] = Conc. Fluralaner 5 μg/ml, hypochlorite 0.5 ppm, T = 7 d at 40° C./75% RH
[10] = Conc. Fluralaner 5 μg/ml, hypochlorite 2 ppm, T = 7 d at 40° C./75% RH
[11] = Conc. Fluralaner 5 μg/ml, hypochlorite 5 ppm (tapw.), T = 7 d at 40° C./75% RH
[12] = Conc. Fluralaner 5 μg/ml, hypochlorite 5 ppm, T = 7 d at 40° C./75% RH
[13] = Conc. Fluralaner 5 μg/ml, hypochlorite 10 ppm, T = 7 d at 40° C./75% RH
[14] = Conc. Fluralaner 10 μg/ml, hypochlorite 0 ppm, T = 0
[15] = Conc. Fluralaner 10 μg/ml, hypochlorite 0 ppm, T = 7 d at 40° C./75% RH
[16] = Conc. Fluralaner 10 μg/ml, hypochlorite 0.5 ppm, T = 7 d at 40° C./75% RH
[17] = Conc. Fluralaner 10 μg/ml, hypochlorite 2 ppm, T = 7 d at 40° C./75% RH
[18] = Conc. Fluralaner 10 μg/ml, hypochlorite 5 ppm (tapw.), T = 7 d at 40° C./75% RH
[19] = Conc. Fluralaner 10 μg/ml, hypochlorite 5 ppm, T = 7 d at 40° C./75% RH
[20] = Conc. Fluralaner 10 μg/ml, hypochlorite 10 ppm, T = 7 d at 40° C./75% RH

Question: What does the source list for Cc1cc(C2=NOC(c3cc(Cl)cc(Cl)c3)(C(F)(F)F)C2)ccc1C(=O)NCC(=O)NCC(F)(F)F (stereo not drawn) [Fluralaner]?
Answer: Fluralaner content in medicated drinking water; alpha-tocopherol as protector [1, 3]: 0.92 µg/mL; Fluralaner content in medicated drinking water; no protector [1, 3]: 0.91 µg/mL; Fluralaner content in medicated drinking water; alpha-tocopherol as protector [1, 4]: 0.86 µg/mL; Fluralaner content in medicated drinking water; no protector [1, 4]: 0.13 µg/mL; Fluralaner content in medicated drinking water; alpha-tocopherol as protector [1, 5]: 0.89 µg/mL; Fluralaner content in medicated drinking water; no protector [1, 5]: 0.29 µg/mL; Fluralaner content in medicated drinking water; alpha-tocopherol as protector [1, 6]: 0.05 µg/mL; Fluralaner content in medicated drinking water; no protector [1, 6]: <LoQ; Fluralaner content in medicated drinking water; alpha-tocopherol as protector [1, 7]: 5.52 µg/mL; Fluralaner content in medicated drinking water; no protector [1, 7]: 5.50 µg/mL; Fluralaner content in medicated drinking water; alpha-tocopherol as protector [1, 8]: 5.45 µg/mL; Fluralaner content in medicated drinking water; no protector [1, 8]: 5.51 µg/mL; Fluralaner content in medicated drinking water; alpha-tocopherol as protector [1, 9]: 5.52 µg/mL; Fluralaner content in medicated drinking water; no protector [1, 9]: 5.52 µg/mL; Fluralaner content in medicated drinking water; alpha-tocopherol as protector [1, 10]: 5.52 µg/mL; Fluralaner content in medicated drinking water; no protector [1, 10]: 5.50 µg/mL; Fluralaner content in medicated drinking water; alpha-tocopherol as protector [1, 11]: 5.42 µg/mL; Fluralaner content in medicated drinking water; no protector [1, 11]: 4.43 µg/mL; Fluralaner content in medicated drinking water; alpha-tocopherol as protector [1, 12]: 5.49 µg/mL; Fluralaner content in medicated drinking water; no protector [1, 12]: 5.31 µg/mL; Fluralaner content in medicated drinking water; alpha-tocopherol as protector [1, 13]: 5.56 µg/mL; Fluralaner content in medicated drinking water; no protector [1, 13]: 1.54 µg/mL; Fluralaner content in medicated drinking water; alpha-tocopherol as protector [1, 14]: 10.14 µg/mL; Fluralaner content in medicated drinking water; no protector [1, 14]: 10.10 µg/mL; Fluralaner content in medicated drinking water; alpha-tocopherol as protector [1, 15]: 10.01 µg/mL; Fluralaner content in medicated drinking water; no protector [1, 15]: 10.07 µg/mL; Fluralaner content in medicated drinking water; alpha-tocopherol as protector [1, 16]: 10.10 µg/mL; Fluralaner content in medicated drinking water; no protector [1, 16]: 10.03 µg/mL; Fluralaner content in medicated drinking water; alpha-tocopherol as protector [1, 17]: 10.10 µg/mL; Fluralaner content in medicated drinking water; no protector [1, 17]: 10.03 µg/mL; Fluralaner content in medicated drinking water; alpha-tocopherol as protector [1, 18]: 9.94 µg/mL; Fluralaner content in medicated drinking water; no protector [1, 18]: 8.69 µg/mL; Fluralaner content in medicated drinking water; alpha-tocopherol as protector [1, 19]: 9.99 µg/mL; Fluralaner content in medicated drinking water; no protector [1, 19]: 9.97 µg/mL; Fluralaner content in medicated drinking water; alpha-tocopherol as protector [1, 20]: 10.05 µg/mL; Fluralaner content in medicated drinking water; no protector [1, 20]: 5.05 µg/mL; Duration of efficacy after first treatment administration ([2]; 0.25 mg/kg BW dose group (2 doses, 7 days apart)): up to 19 days; Duration of efficacy after first treatment administration ([2]; 0.5 mg/kg BW dose group (2 doses, 7 days apart)): ≤ 22 days; Duration of efficacy after first treatment administration ([2]; 1.0 mg/kg BW dose group (2 doses, 7 days apart)): ≤ 22 days; Efficacy against O. sylviarum ([2]; 2 single doses of 0.25, 0.5, or 1 mg/kg BW, 7 days apart, oral): significant efficacy; Reductions in mite vent counts, onset ([2]; all treated groups, beginning at day 1): statistically significant reductions; Efficacy against Northern fowl mites (reduction in mite vent count) ([2]; all treated groups, for at least 19 days, untreated source birds in same pen): > 90%
